Reference: PubChem BioAssay AID330 (DTP/NCI, 2004)
“And” between values parts separate entries of the source, which are not always exact repeats. Equal values may be shown once. Inconclusive results and toxic doses are left out. How the source made its calls: active means survival T/C of 150% or more; inactive means T/C below 125% in these data.

Test system: P388 leukemia ip, CD2F1 mice, survival T/C
Experiment: NCI In Vivo Anticancer Drug Screen. Data for tumor model P388 Leukemia (intraperitoneal) in CD2F1 (CDF1) mice
Conditions: endpoint: median survival time, higher = longer survival
Procedure, shortened: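 Mice carrying the transplanted tumor received test compound or vehicle. Survival was recorded in each group, and the value is the treated-group measurement divided by that of the vehicle-treated control group.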

[1] = dose: 25.0 mg/kg/injection, schedule: Q01DX009 (ip), vehicle: Klucel (hydroxypropylcellulose) (HPC)
[2] = dose: 25.0 mg/kg/injection, schedule: Q01DX009 (ip), vehicle: saline with Tween-80
[3] = dose: 50.0 mg/kg/injection, schedule: Q01DX009 (ip), vehicle: saline with Tween-80
[4] = dose: 100.0 mg/kg/injection, schedule: Q01DX009 (ip), vehicle: saline with Tween-80
[5] = dose: 200.0 mg/kg/injection, schedule: Q01DX009 (ip), vehicle: saline with Tween-80
[6] = dose: 60.0 mg/kg/injection, schedule: Q01DX005 (ip), vehicle: saline with Tween-80
[7] = dose: 120.0 mg/kg/injection, schedule: Q01DX005 (ip), vehicle: saline with Tween-80
[8] = dose: 240.0 mg/kg/injection, schedule: Q01DX005 (ip), vehicle: saline with Tween-80
[9] = dose: 50.0 mg/kg/injection, schedule: Q01DX005 (ip), vehicle: saline with Tween-80
[10] = dose: 100.0 mg/kg/injection, schedule: Q01DX005 (ip), vehicle: saline with Tween-80
[11] = dose: 200.0 mg/kg/injection, schedule: Q01DX005 (ip), vehicle: saline with Tween-80
[12] = dose: 50.0 mg/kg/injection, schedule: Q01DX009 (ip), vehicle: Klucel (hydroxypropylcellulose) (HPC)
[13] = dose: 100.0 mg/kg/injection, schedule: Q01DX009 (ip), vehicle: Klucel (hydroxypropylcellulose) (HPC)
[14] = dose: 200.0 mg/kg/injection, schedule: Q01DX009 (ip), vehicle: Klucel (hydroxypropylcellulose) (HPC)
[15] = dose: 12.5 mg/kg/injection, schedule: Q01DX005 (ip), vehicle: saline with Tween-80
[16] = dose: 25.0 mg/kg/injection, schedule: Q01DX005 (ip), vehicle: saline with Tween-80

Measured: T/C

O=C1CN=C(c2ccc[nH]2)c2cc(Cl)ccc2N1
inactive: [1] 120 % of control | [2] 109 % of control | dose: 50.0 mg/kg/injection, schedule: Q01DX001 (ip), vehicle: saline 109 % of control | [3] 100 % of control | dose: 100.0 mg/kg/injection, schedule: Q01DX001 (ip), vehicle: saline 109 % of control | [4] 104 % of control | dose: 200.0 mg/kg/injection, schedule: Q01DX001 (ip), vehicle: saline 104 % of control | [5] 118 % of control | dose: 400.0 mg/kg/injection, schedule: Q01DX001 (ip), vehicle: saline 100 % of control | dose: 400.0 mg/kg/injection, schedule: Q01DX009 (ip), vehicle: saline with Tween-80 118 % of control

O=C(Nc1ccccc1C(=O)Nc1nccs1)c1ccccc1
inactive: [6] 86 % of control | [7] 93 % of control | [8] 98 % of control

CC/C(=N/OC)C(=O)OC
inactive: [9] 93 % of control | [10] 99 % of control | [11] 100 % of control

O=c1c(/C=C\Nc2ccccc2)c(-c2ccccc2)c1=O
inactive: dose: 100.0 mg/kg/injection, schedule: Q01DX001 (ip), vehicle: saline with Tween-80 100 % of control | dose: 200.0 mg/kg/injection, schedule: Q01DX001 (ip), vehicle: saline with Tween-80 92 % of control | dose: 400.0 mg/kg/injection, schedule: Q01DX001 (ip), vehicle: saline with Tween-80 92 % of control

CCOC(=O)c1c(C)c2c(n1C)CCc1cn[nH]c1-2
inactive: [1] 99 % of control | [12] 105 % of control | [13] 107 % of control | [14] 107 % of control | dose: 400.0 mg/kg/injection, schedule: Q01DX009 (ip), vehicle: Klucel (hydroxypropylcellulose) (HPC) 98 % of control | dose: 600.0 mg/kg/injection, schedule: Q01DX009 (ip), vehicle: Klucel (hydroxypropylcellulose) (HPC) 98 % of control

CC(C)NC(=O)OCc1cc(-c2ccccc2)n(C)c1-c1ccccc1
inactive: dose: 6.25 mg/kg/injection, schedule: Q01DX009 (ip), vehicle: distilled water + Tween-80 104 % of control and 98 % of control | dose: 12.5 mg/kg/injection, schedule: Q01DX009 (ip), vehicle: distilled water + Tween-80 107 % of control and 110 % of control and 113 % of control | dose: 25.0 mg/kg/injection, schedule: Q01DX009 (ip), vehicle: distilled water + Tween-80 117 % of control and 120 % of control and 122 % of control | dose: 50.0 mg/kg/injection, schedule: Q01DX009 (ip), vehicle: distilled water + Tween-80 105 % of control and 114 % of control and 116 % of control | dose: 100.0 mg/kg/injection, schedule: Q01DX009 (ip), vehicle: distilled water + Tween-80 92 % of control

NC1=NC(=S)C2N=C(N=Nc3ccc(C(=O)NC(CCC(=O)O)C(=O)O)cc3)N=C2N1 (stereo not drawn)
active: dose: 3.0 mg/kg/injection, schedule: Q01DX009 (ip), vehicle: Klucel (hydroxypropylcellulose) (HPC) 156 % of control
inactive: dose: 0.19 mg/kg/injection, schedule: Q01DX009 (ip), vehicle: Klucel (hydroxypropylcellulose) (HPC) 108 % of control and 120 % of control

CC(/C=C/c1ccccc1)=N\Nc1ccc(Cl)c(Cl)c1
inactive: [12] 102 % of control | [13] 102 % of control | [14] 100 % of control

CN(C)C(=S)C(C)(C)C
inactive: [9] 111 % of control | [10] 103 % of control | [11] 106 % of control

CCN(CC)CC(O)CNc1ncnc(N)c1C(=C(C)C)c1ccc(Cl)cc1 (stereo not drawn)
inactive: [2] 100 % of control | [3] 100 % of control | [4] 90 % of control

CC1(C)COCN1COCCCOCN1COCC1(C)C
inactive: dose: 12.5 mg/kg/injection, schedule: Q01DX009 (ip), vehicle: saline with Tween-80 102 % of control | [2] 120 % of control | dose: 150.0 mg/kg/injection, schedule: Q01DX009 (ip), vehicle: saline with Tween-80 118 % of control

CC(=O)Oc1ccc(N2C(=O)C3C(C2=O)C2c4ccccc4C3C3CCCCN32)cc1 (stereo not drawn) (tested in a mixture with another compound)
inactive: dose: 6.25 mg/kg/injection, schedule: Q01DX009 (ip), vehicle: water 101 % of control | dose: 12.5 mg/kg/injection, schedule: Q01DX009 (ip), vehicle: water 111 % of control | dose: 25.0 mg/kg/injection, schedule: Q01DX009 (ip), vehicle: water 104 % of control | dose: 50.0 mg/kg/injection, schedule: Q01DX009 (ip), vehicle: water 102 % of control | dose: 100.0 mg/kg/injection, schedule: Q01DX009 (ip), vehicle: water 104 % of control

C=CCC(C(=O)OC)c1ccccc1 (stereo not drawn)
inactive: dose: 0.4 mg/kg/injection, schedule: Q01DX009 (ip), vehicle: saline with Tween-80 99 % of control | dose: 0.8 mg/kg/injection, schedule: Q01DX009 (ip), vehicle: saline with Tween-80 98 % of control | dose: 1.6 mg/kg/injection, schedule: Q01DX009 (ip), vehicle: saline with Tween-80 104 % of control

CN(CCC1(C)C(=O)CCc2ccccc21)Cc1ccccc1 (stereo not drawn)
inactive: [15] 102 % of control | [16] 96 % of control | [9] 100 % of control and 96 % of control

O=C(O)c1cc2sccc2c(=O)[nH]1
inactive: dose: 100.0 mg/kg/injection, schedule: Q04DX003 (ip), vehicle: Klucel (hydroxypropylcellulose) (HPC) 102 % of control | dose: 200.0 mg/kg/injection, schedule: Q04DX003 (ip), vehicle: Klucel (hydroxypropylcellulose) (HPC) 113 % of control | dose: 400.0 mg/kg/injection, schedule: Q04DX003 (ip), vehicle: Klucel (hydroxypropylcellulose) (HPC) 103 % of control

COC(=O)N1c2ccccc2SC1C#N (stereo not drawn)
inactive: [6] 96 % of control | [7] 112 % of control | [8] 106 % of control

CCOC(=O)N1C=CC2Oc3c(Cl)c(Cl)c(Cl)c(Cl)c3OC2C=N1 (stereo not drawn)
inactive: dose: 60.0 mg/kg/injection, schedule: Q01DX005 (ip), vehicle: Klucel (hydroxypropylcellulose) (HPC) 102 % of control | dose: 120.0 mg/kg/injection, schedule: Q01DX005 (ip), vehicle: Klucel (hydroxypropylcellulose) (HPC) 101 % of control | dose: 240.0 mg/kg/injection, schedule: Q01DX005 (ip), vehicle: Klucel (hydroxypropylcellulose) (HPC) 101 % of control

CN1C(c2ccccc2)CC(=O)C(N)C1c1ccccc1 (stereo not drawn)
inactive: dose: 50.0 mg/kg/injection, schedule: Q01DX005 (ip), vehicle: distilled water + Tween-80 92 % of control | dose: 100.0 mg/kg/injection, schedule: Q01DX005 (ip), vehicle: distilled water + Tween-80 90 % of control | dose: 200.0 mg/kg/injection, schedule: Q01DX005 (ip), vehicle: distilled water + Tween-80 92 % of control

C[N+]1(Cc2ccccc2)CCC(O)(C(=O)c2ccccc2)CC1 (stereo not drawn)
inactive: dose: 15.0 mg/kg/injection, schedule: Q01DX005 (ip), vehicle: saline with Tween-80 98 % of control | dose: 30.0 mg/kg/injection, schedule: Q01DX005 (ip), vehicle: saline with Tween-80 100 % of control | [6] 104 % of control and 86 % of control

CCC(=O)OC1CC2(C)C(=CC1=O)CCC1C2CCC2(C)C(OC(=O)CC)CCC12 (stereo not drawn)
inactive: [3] 100 % of control | [4] 95 % of control | dose: 100.0 mg/kg/injection, schedule: Q04DX003 (ip), vehicle: saline with Tween-80 100 % of control | [5] 100 % of control | dose: 200.0 mg/kg/injection, schedule: Q04DX003 (ip), vehicle: saline with Tween-80 100 % of control

O=C(O)C(=O)O.[Cu+2].[NH-]C1CCCC2CCC[N-]C12 (stereo not drawn)
inactive: dose: 7.5 mg/kg/injection, schedule: Q04DX002 (ip), vehicle: suspension in saline 89 % of control | dose: 15.0 mg/kg/injection, schedule: Q04DX002 (ip), vehicle: suspension in saline 92 % of control | dose: 30.0 mg/kg/injection, schedule: Q04DX002 (ip), vehicle: suspension in saline 90 % of control

CCOC(=O)c1c[n+](C2OC(COC(=O)c3ccccc3)C(OC(=O)c3ccccc3)C2OC(=O)c2ccccc2)ccc1N (stereo not drawn)
inactive: [15] 98 % of control | [16] 107 % of control | [9] 105 % of control and 92 % of control

CCCCCC(CC(=O)O)C(N)C(=O)O (stereo not drawn)
inactive: [12] 104 % of control | [13] 103 % of control | [14] 99 % of control

CN(C)CCn1c2ccccc2c2cc([N+](=O)[O-])ccc21
inactive: [12] 102 % of control | [13] 105 % of control | [14] 108 % of control

CN1C(=O)c2ccccc2CC12c1ccccc1C(=O)N2C (stereo not drawn)
inactive: [15] 94 % of control | [16] 90 % of control | [9] 108 % of control

Cn1cc(-n2[nH]c(=O)n(-c3ccccc3)c2=O)c(=O)n(C)c1=O
inactive: [12] 101 % of control | [13] 101 % of control | [14] 96 % of control
